Common to all, as to details: dose 0.25-4 mg/L
Test [1] has as its system Klebsiella pneumoniae. The experiment in a line: Antibacterial activity against Klebsiella pneumoniae FADDI-KP065 assessed as fold increase in MIC at 0.25 to 4 mg/L in presence of lung surfactant by broth microdilution assay. The test is classed as functional. A general note: Dilution methods test growth across graded concentrations, often in twofold steps.
Test [2] concerns Pseudomonas aeruginosa. The experiment in a line: Antibacterial activity against Pseudomonas aeruginosa ATCC 27853 assessed as fold increase in MIC at 0.25 to 4 mg/L in presence of lung surfactant by broth microdilution assay. The test is classed as functional.
Test [3] has as its system Acinetobacter baumannii. Nature of the test: Antibacterial activity against Acinetobacter baumannii FADDI-AB030 assessed as fold increase in MIC at 0.25 to 4 mg/L in presence of lung surfactant by broth microdilution assay. The test is classed as functional.
For test [4], the system named is Klebsiella pneumoniae. The experiment in a line: Antibacterial activity against Klebsiella pneumoniae FADDI-KP065 assessed as decrease in bacterial growth at 0.25 to 4 mg/L in presence of lung surfactant by broth microdilution assay. It is filed as functional, organism-based.
In test [5] the test system is Acinetobacter baumannii. Nature of the test: Antibacterial activity against Acinetobacter baumannii FADDI-AB030 assessed as decrease in bacterial growth at 0.25 to 4 mg/L in presence of lung surfactant by broth microdilution assay. It is filed as functional, organism-based.
Test [6] has as its system Pseudomonas aeruginosa. Nature of the test: Antibacterial activity against Pseudomonas aeruginosa ATCC 27853 assessed as decrease in bacterial growth at 0.25 to 4 mg/L in presence of lung surfactant by broth microdilution assay. The test is classed as functional, organism-based.

Active and inactive are the calls of the source. The rule behind the calls is not given here. Where a SMILES comes first, the peptide text is derived from it. Bridges are numbered along the chain shown (N, C = ends). [ ]: non-standard residue; d: D form. The star is where a group is joined. X1 = CC[C@H](C)CCCCC(=O)*; dDab = NCC[C@@H](N)C(=O)O; Dab = NCC[C@H](N)C(=O)O

For the molecule `CCCCCCCC[C@@H]1NC(=O)[C@@H](Cc2ccccc2)NC(=O)[C@@H](CCN)NC(=O)[C@@H](NC(=O)[C@H](CCN)NC(=O)[C@@H](NC(=O)[C@H](CCN)NC(=O)CCCCCCC)[C@@H](C)O)CCNC(=O)[C@H]([C@@H](C)O)NC(=O)[C@H](CCN)NC(=O)[C@H](CCN)NC1=O`, the “fold change (FC)” value in the test on Klebsiella pneumoniae [1] worked out at 2; in the test on Pseudomonas aeruginosa [2] it was 8; in the test with Acinetobacter baumannii [3], 2.
With `CCCCCC(=O)N[C@@H](CCN)C(=O)N[C@@H](C(=O)N[C@@H](CCN)C(=O)N[C@H]1CCNC(=O)[C@@H]([C@H](C)O)NC(=O)[C@H](CCN)NC(=O)[C@H](CCN)NC(=O)[C@H]([C@H](C)O)NC(=O)[C@@H](CC(C)C)NC(=O)[C@H](CCN)NC1=O)[C@H](C)O`, the outcome in the test with Klebsiella pneumoniae [4], with Acinetobacter baumannii [5] and with Pseudomonas aeruginosa [6] was inactive.
Regarding `CCCCCCCCCC(=O)N[C@@H](CCN)C(=O)N[C@H](C(=O)N[C@@H](CCN)C(=O)N[C@H]1CCNC(=O)[C@H]([C@@H](C)O)NC(=O)[C@H](CCN)NC(=O)[C@H](CCN)NC(=O)[C@H]([C@H](C)O)NC(=O)[C@@H](CC(C)C)NC(=O)[C@H](CCN)NC1=O)[C@@H](C)O`, the result in the test on Klebsiella pneumoniae [4], in the test on Acinetobacter baumannii [5] and in the test with Pseudomonas aeruginosa [6] was Active.
For the molecule `CC[C@H](C)CCCCC(=O)N[C@@H](CCN)C(=O)N[C@H](C(=O)N[C@@H](CCN)C(=O)N[C@H]1CCNC(=O)[C@H]([C@@H](C)O)NC(=O)[C@H](CCN)NC(=O)[C@H](CCN)NC(=O)[C@H](CC(C)C)NC(=O)[C@@H](Cc2ccccc2)NC(=O)[C@H](CCN)NC1=O)[C@@H](C)O` (X1-[Dab]T[Dab][Dab][Dab][dF]L[Dab][Dab]T; lactam 4-C), the outcome in the test with Klebsiella pneumoniae [4], in the test with Acinetobacter baumannii [5] and in the test on Pseudomonas aeruginosa [6] was Active.
Consider `CC[C@H](C)CCCCC(=O)N[C@@H](CCN)C(=O)N[C@H](C(=O)N[C@@H](CCN)C(=O)N[C@H]1CCNC(=O)[C@H]([C@@H](C)O)NC(=O)[C@H](CCN)NC(=O)[C@H](CCN)NC(=O)[C@H]([C@@H](C)O)NC(=O)[C@@H](CC(C)C)NC(=O)[C@H](CCN)NC1=O)[C@@H](C)O` (X1-[Dab]T[Dab][Dab][Dab][dL]T[Dab][Dab]T; lactam 4-C), for which the “fold change (FC)” value in the test on Klebsiella pneumoniae [1] amounted to 4; with Pseudomonas aeruginosa [2], 2; in the test on Acinetobacter baumannii [3] it was 4. In addition, the result in the test with Klebsiella pneumoniae [4], in the test with Acinetobacter baumannii [5] and in the test on Pseudomonas aeruginosa [6] was Active.
Take `CC[C@H](C)CCCCC(=O)N[C@@H](CCN)C(=O)N[C@H](C(=O)N[C@H](CCN)C(=O)N[C@H]1CCNC(=O)[C@H]([C@@H](C)O)NC(=O)[C@H](CCN)NC(=O)[C@H](CCN)NC(=O)[C@H]([C@@H](C)O)NC(=O)[C@@H](CC(C)C)NC(=O)[C@H](CCN)NC1=O)[C@@H](C)O` (X1-[Dab]T[dDab][Dab][Dab][dL]T[Dab][Dab]T; lactam 4-C): the figures for the “fold change (FC)” value with Klebsiella pneumoniae [1], in the test on Pseudomonas aeruginosa [2] and with Acinetobacter baumannii [3] were 8, 2 and 4, respectively. Moreover, the outcome with Klebsiella pneumoniae [4], with Acinetobacter baumannii [5] and with Pseudomonas aeruginosa [6] was Active.
On to COLISTIN, for which the fold change (FC) stood at 2 with Klebsiella pneumoniae [1], 4 with Pseudomonas aeruginosa [2] and 4 in the test on Acinetobacter baumannii [3]. Besides, the result in the test with Klebsiella pneumoniae [4], in the test on Acinetobacter baumannii [5] and in the test with Pseudomonas aeruginosa [6] was Active.

The record behind these values is ChEMBL document CHEMBL5375971, “Structure-Interaction Relationship of Polymyxins with Lung Surfactant” (2023).
